The record followed here is ChEMBL document CHEMBL5465560, “Selectivity Literature for EUbOPEN Chemogenomic Library” (2024).

Assay [1] concerns the target T1, Serine/threonine-protein kinase RIO3 (Homo sapiens) (UniProt O14730).
T1 sequence (whole entry): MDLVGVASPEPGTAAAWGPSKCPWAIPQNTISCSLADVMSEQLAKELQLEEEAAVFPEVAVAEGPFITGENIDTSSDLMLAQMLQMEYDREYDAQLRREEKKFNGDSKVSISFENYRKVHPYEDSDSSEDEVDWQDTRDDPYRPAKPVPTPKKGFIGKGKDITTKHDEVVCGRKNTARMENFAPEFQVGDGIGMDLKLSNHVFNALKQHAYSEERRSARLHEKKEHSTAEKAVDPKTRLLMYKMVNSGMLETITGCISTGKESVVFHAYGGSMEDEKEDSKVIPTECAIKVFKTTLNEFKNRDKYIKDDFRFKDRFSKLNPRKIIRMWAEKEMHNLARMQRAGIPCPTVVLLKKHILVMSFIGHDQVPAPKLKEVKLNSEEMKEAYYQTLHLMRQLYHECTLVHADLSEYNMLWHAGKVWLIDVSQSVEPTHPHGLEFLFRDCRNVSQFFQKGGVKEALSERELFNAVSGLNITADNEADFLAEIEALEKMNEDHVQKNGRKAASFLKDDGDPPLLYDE
In words: Selectivity interaction (KinomeScan (DiscoverX)) EUB0001868a RIOK3. The settings on record: at 1 µM.

Assay [2] deals with T2, Myosin-IIIb (Homo sapiens) (UniProt Q8WXR4).
T2 sequence (whole entry): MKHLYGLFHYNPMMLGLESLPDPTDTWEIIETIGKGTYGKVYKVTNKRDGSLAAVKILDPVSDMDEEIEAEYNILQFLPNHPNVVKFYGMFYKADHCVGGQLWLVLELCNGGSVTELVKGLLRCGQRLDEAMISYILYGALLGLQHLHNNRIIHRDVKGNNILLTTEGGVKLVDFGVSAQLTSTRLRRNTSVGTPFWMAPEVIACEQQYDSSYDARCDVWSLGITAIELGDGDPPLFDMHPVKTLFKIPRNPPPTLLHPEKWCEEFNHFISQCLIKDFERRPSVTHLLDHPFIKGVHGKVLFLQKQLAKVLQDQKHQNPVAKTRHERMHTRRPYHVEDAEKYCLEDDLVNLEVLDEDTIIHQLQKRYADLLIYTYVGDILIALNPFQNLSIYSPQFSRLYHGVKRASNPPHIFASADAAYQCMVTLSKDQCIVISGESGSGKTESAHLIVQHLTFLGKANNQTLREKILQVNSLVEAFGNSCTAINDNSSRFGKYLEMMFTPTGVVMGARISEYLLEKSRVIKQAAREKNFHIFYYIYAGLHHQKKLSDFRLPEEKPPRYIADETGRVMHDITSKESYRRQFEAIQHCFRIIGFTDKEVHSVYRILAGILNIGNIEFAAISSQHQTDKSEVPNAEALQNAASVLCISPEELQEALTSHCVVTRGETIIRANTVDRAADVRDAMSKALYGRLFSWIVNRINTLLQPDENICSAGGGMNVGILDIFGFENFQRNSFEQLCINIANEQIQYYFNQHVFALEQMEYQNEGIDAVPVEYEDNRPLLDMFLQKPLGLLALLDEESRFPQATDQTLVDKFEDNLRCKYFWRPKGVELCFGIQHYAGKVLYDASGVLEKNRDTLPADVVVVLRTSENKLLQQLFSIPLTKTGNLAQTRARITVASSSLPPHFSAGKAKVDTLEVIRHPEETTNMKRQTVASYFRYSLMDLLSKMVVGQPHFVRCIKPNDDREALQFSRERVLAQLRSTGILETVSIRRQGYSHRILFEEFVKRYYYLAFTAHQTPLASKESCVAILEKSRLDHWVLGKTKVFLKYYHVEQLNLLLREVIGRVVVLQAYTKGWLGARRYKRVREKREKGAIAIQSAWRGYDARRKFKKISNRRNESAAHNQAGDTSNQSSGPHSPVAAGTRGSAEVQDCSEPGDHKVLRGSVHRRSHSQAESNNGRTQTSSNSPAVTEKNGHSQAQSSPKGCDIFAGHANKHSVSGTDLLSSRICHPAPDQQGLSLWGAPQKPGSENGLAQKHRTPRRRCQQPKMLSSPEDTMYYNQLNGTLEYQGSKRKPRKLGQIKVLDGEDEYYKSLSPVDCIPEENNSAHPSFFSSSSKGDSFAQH
The assay is described as follows: Selectivity interaction (KinomeScan (DiscoverX)) EUB0000595a MYO3B. The settings on record: at 10 µM.

For assay [3], the target named is T3, Serine/threonine-protein kinase ULK3 (Homo sapiens) (UniProt Q6PHR2).
T3 sequence (whole entry): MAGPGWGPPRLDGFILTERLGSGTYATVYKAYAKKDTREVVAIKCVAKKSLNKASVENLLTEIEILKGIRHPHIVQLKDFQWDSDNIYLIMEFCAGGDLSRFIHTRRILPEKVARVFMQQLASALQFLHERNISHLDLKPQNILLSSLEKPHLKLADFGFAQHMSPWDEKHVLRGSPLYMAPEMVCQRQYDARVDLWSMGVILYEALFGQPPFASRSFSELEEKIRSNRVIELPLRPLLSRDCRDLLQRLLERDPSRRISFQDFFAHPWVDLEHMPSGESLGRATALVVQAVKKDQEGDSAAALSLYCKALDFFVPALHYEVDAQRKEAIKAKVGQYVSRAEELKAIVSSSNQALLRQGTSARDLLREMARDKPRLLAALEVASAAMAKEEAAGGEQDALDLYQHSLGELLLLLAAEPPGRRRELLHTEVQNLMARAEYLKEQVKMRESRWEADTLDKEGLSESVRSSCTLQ
In words: Selectivity interaction (KinomeScan (DiscoverX)) EUB0000595a ULK3. The settings on record: at 10 µM.

In the case of `Cc1cc(-c2ccnc(Nc3cnn(C)c3)n2)ccc1CNC(=O)N1CC(OC(C)C)C1`, the % of control in assay [1] was 19%.

For `COCC(=O)NC/C=C/c1ccc2ncnc(Nc3ccc(Oc4ccc(C)nc4)c(C)c3)c2c1` [CP-724714], the % of control in assay [2] worked out at 100%; in assay [3] it was 68%.
